Data taken from ChEMBL document CHEMBL1681705, “Optimisation of ITK inhibitors through successive iterative design cycles” (Bioorg Med Chem Lett, 2011).

Key:
[1] = biological target: T1, Serine/threonine-protein kinase TBK1 (Homo sapiens) (UniProt Q9UHD2); experiment: Inhibition of TBK1 at 0.1 uM; values are per cent of control
T1 sequence (whole entry): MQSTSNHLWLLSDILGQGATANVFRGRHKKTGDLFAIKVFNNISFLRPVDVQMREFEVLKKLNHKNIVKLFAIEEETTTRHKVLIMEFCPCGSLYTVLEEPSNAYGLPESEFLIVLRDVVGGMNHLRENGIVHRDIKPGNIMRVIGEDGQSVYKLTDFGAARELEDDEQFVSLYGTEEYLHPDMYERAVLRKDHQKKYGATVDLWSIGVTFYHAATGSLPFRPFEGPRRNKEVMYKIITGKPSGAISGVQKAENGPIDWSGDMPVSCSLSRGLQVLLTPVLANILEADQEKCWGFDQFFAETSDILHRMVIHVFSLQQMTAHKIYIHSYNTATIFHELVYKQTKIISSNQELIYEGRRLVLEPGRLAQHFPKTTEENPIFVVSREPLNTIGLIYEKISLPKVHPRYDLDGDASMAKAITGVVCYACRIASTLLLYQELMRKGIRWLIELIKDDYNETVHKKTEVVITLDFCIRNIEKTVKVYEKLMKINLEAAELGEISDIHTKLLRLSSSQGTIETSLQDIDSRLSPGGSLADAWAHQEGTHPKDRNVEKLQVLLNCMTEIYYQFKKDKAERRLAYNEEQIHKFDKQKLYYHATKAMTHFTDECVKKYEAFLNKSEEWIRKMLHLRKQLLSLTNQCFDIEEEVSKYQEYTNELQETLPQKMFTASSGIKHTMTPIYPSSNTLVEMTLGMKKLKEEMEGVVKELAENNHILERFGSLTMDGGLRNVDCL

[2] = biological target: Fibroblast growth factor receptor 2 (Homo sapiens) (UniProt P21802); experiment: Inhibition of FGFR2 at 1 uM; values are per cent of control
Sequence of Fibroblast growth factor receptor 2 (Homo sapiens) (P21802 22-821 limits assumed): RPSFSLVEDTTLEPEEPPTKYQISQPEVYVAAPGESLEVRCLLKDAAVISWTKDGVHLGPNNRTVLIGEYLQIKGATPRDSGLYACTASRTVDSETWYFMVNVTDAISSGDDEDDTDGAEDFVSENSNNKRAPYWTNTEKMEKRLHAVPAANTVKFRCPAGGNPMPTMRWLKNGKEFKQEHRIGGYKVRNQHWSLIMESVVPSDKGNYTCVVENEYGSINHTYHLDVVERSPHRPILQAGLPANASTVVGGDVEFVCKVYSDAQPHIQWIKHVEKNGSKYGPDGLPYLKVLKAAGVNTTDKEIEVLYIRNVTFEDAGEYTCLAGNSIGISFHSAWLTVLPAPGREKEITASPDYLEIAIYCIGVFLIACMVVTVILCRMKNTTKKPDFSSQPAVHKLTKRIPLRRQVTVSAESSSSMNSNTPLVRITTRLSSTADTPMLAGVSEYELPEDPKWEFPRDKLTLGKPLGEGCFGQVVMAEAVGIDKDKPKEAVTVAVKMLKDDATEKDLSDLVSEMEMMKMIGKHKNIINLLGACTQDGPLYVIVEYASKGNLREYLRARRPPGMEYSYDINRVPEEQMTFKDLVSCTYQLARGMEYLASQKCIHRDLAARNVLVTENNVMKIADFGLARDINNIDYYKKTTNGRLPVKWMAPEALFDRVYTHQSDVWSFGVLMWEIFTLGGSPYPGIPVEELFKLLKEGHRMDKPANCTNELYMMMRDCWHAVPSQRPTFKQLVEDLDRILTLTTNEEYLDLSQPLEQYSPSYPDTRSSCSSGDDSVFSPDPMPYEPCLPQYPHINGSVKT

[3] = biological target: T2, Ephrin type-A receptor 1 (Homo sapiens) (UniProt P21709); experiment: Inhibition of EphA1 at 1 uM; values are per cent of control
T2 sequence (whole entry): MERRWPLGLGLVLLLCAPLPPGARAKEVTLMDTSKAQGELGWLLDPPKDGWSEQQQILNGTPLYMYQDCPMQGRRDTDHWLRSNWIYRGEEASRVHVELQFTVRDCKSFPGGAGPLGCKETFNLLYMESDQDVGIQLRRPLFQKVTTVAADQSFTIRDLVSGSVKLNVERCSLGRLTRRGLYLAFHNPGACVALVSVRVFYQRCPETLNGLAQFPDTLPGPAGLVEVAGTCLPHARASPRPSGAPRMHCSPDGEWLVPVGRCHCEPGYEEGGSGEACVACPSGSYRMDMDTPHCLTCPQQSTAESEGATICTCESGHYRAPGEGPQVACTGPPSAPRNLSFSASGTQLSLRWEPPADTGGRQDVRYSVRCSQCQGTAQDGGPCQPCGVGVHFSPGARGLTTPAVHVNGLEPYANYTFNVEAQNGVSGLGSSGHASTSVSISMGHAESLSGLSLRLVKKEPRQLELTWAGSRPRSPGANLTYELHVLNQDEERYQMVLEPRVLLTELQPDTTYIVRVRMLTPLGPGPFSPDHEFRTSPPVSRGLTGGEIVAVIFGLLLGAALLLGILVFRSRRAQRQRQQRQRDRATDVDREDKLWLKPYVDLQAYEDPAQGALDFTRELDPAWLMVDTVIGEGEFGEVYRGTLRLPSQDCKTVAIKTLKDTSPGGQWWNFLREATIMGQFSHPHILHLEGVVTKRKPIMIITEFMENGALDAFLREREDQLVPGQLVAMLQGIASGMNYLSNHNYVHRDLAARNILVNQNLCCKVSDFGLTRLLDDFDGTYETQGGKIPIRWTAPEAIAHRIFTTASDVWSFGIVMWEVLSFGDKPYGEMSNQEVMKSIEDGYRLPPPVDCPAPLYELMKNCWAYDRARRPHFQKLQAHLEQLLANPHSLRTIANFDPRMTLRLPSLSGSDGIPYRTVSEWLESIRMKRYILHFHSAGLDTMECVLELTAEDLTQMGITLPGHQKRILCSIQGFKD

[4] = biological target: T3, Cytoplasmic tyrosine-protein kinase BMX (Homo sapiens) (UniProt P51813); experiment: Inhibition of Bmx at 1 uM; values are per cent of control
T3 sequence (whole entry): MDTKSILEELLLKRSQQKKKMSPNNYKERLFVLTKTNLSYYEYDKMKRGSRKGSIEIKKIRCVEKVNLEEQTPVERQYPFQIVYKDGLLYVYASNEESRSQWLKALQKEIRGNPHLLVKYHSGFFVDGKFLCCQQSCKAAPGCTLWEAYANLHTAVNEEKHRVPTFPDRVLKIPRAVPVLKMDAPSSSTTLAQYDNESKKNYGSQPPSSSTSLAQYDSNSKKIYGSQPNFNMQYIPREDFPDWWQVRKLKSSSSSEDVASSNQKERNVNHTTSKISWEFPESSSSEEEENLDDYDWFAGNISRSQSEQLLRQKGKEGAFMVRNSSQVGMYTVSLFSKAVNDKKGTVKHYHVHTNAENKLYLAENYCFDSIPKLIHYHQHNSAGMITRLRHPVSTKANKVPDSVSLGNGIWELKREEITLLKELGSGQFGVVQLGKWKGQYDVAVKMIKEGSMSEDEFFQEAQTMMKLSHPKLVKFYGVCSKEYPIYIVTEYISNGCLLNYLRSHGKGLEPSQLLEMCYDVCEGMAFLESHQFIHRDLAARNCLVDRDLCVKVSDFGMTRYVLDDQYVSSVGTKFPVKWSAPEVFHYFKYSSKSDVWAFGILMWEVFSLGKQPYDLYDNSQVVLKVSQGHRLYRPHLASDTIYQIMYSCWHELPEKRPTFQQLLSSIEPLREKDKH

[5] = biological target: T4, Serine/threonine-protein kinase Chk1 (Homo sapiens) (UniProt O14757); experiment: Inhibition of CHK1 at 0.1 uM; values are per cent of control
T4 sequence (whole entry): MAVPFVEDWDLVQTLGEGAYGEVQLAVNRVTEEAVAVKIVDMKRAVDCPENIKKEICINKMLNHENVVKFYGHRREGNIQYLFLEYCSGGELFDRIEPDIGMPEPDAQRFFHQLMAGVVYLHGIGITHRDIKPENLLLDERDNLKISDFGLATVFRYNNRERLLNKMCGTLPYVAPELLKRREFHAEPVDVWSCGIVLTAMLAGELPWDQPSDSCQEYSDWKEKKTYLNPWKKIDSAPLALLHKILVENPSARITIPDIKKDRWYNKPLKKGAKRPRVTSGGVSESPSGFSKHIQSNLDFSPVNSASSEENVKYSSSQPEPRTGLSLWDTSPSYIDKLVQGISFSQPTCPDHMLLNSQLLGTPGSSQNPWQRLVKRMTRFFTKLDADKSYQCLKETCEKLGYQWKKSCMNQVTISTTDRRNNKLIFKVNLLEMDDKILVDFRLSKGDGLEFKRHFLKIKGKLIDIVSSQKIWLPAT

Structure (SMILES)	residual activity [1] [%]	residual activity [2] [%]	residual activity [3] [%]	residual activity [4] [%]	residual activity [5] [%]
Cc1ccc2cc(-c3n[nH]c4ccc(NC5CCNC5)cc34)[nH]c2c1 (stereo not given)	19	1	5	-7	18
Cc1ccc2cc(-c3n[nH]c4ccc(NC5CCN(Cc6ccccc6)CC5)cc34)[nH]c2c1	53	4	12	8	90
